Patent publication US20070207093A1, “Hydrazone derivatives and uses thereof” (Linquagen Corp., priority 2005, published 2007)

Assays:
Type in all cases: cell-based
[1] = test system: GPCR-mediated calcium activation step; assay: Calcium counterscreen (calcium sensitive dye, ATP stimulation); details: Homo sapiens, 10 μM compound, same HEK293 TRPM5 cells, Calcium3 dye, read-out: Calcium Counterscreen (percent inhibition)
Protocol: (§1) Two counterscreen assays were run on separate cell plates utilizing the same cells as described above. In the calcium counterscreen, the cells were loaded with a calcium sensitive dye (Calcium3 Dye, Part no. 8090, Molecular Devices Corp.) and stimulated by ATP to check for compounds that block the GPCR-mediated calcium activation step. In the KCl counterscreen, cells are stimulated with 10 mM KCl instead of ATP to check for compounds that inhibit the membrane potential response by virtue of being non-specific ion channel blockers.
(§2) Unless otherwise indicated, the data in the table below were determined using the three assays described above, providing percent inhibition data at 10 μM.

human TRPM5 ion channel = biological target: T1, human TRPM5 ion channel (Homo sapiens, UniProt Q9NZQ8); assay: TRPM5 FLIPR membrane potential screening assay (ATP stimulation); details: 10 μM compound; HEK293 cells stably expressing human TRPM5; 3 μM ATP stimulation; versus negative control wells; read-out: TRPM5 Activity (percent inhibition)
T1 construct: expressed in transfected cells
T1 sequence (Q9NZQ8 1-1165): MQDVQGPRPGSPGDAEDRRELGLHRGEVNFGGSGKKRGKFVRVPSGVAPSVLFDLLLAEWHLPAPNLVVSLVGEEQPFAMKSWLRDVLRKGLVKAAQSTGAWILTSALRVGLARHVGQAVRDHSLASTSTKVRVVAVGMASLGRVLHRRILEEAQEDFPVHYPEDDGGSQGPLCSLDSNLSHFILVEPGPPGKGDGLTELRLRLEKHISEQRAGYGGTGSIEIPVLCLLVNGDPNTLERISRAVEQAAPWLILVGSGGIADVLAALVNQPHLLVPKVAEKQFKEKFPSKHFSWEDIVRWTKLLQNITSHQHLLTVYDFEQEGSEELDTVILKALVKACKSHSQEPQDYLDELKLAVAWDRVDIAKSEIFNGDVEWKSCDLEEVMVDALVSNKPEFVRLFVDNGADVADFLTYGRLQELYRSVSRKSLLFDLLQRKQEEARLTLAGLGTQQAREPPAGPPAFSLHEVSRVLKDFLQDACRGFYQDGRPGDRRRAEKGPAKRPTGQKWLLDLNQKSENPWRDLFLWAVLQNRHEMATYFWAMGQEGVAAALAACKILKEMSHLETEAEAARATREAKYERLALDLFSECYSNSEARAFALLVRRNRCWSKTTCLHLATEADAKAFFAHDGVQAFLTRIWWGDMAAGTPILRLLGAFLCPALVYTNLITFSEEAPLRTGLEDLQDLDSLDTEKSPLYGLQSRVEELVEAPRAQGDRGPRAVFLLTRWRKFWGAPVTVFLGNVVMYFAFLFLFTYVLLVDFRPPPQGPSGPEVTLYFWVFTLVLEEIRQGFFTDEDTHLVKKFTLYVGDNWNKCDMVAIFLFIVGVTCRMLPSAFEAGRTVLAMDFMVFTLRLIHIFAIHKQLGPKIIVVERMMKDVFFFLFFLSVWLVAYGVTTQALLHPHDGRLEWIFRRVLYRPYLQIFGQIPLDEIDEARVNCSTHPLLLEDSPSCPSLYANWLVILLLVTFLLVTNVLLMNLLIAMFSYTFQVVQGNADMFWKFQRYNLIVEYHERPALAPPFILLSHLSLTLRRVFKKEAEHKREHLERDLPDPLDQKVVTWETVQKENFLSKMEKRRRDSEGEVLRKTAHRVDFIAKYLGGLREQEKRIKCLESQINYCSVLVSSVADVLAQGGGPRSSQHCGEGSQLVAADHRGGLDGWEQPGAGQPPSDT
Protocol: The activity of human TRPM5 ion channel was measured in live cells on a fluorescent imaging plate reader (FLIPR). The basis of the assay (shown in FIG. 1) is the calcium-dependent activation of the ion channel which occurs via by activation of a G-protein coupled receptor (GPCR). GPCR activation by an appropriate agonist causes a transient increase in […] Ca^2+ ion concentration which in turn causes the ion channel to open, letting in Na^+ ions. This influx causes a change in the membrane potential of the cell which can be monitored as a change in the fluorescent signal from voltage-dependent (membrane potential) fluorescent dyes.
For the screening assay, the human TRPM5 gene was cloned, put into HEK293 cells, and a stable, high expression clone was used for screening. Cells were grown in standard media at 37° C. The day before screening, the cells were removed from flasks and added to 384 well clear bottom plates (8K cells in 20 μL/well). On the assay day, 20 μL of membrane potential dye (Part No. R8123, Molecular Devices Corp.) was added to the cells and dye was allowed to be taken up, i.e., load, into the cells for 1 hr at 37° C. […] The assay was started by addition of 10 μL of solution from the compound plate into the cell plate. During this process, continuous fluorescent recordings were made simultaneously for all wells. After addition of the compound solution, the tips were automatically washed and a stimulation solution of 3 μM ATP (an agonist for an endogenous purinurgic GPCR, was added to all wells of the cell plate. The height of the response was calculated and percent inhibition values, versus negative control wells, was calculated for the test samples.
as §2

[2] = test system: membrane potential response (non-specific ion channel block); assay: KCl counterscreen (membrane potential dye, 10 mM KCl stimulation); details: Homo sapiens; 10 μM compound; same HEK293 TRPM5 cells; 10 mM KCl instead of ATP; read-out: KC1 Counterscreen (percent inhibition)
Protocol: as §1, §2

| Compound | inhibition at 10 µM [1] | inhibition at 10 µM (human TRPM5 ion channel) | inhibition at 10 µM [2] |
| --- | --- | --- | --- |
| O=C(O)COc1ccc(Br)cc1/C=N/Nc1cccc2cccnc12 [Example 2, (E)-2-(4-Bromo-2-((2-(quinolin-8-yl)hydrazono)methyl)phenoxy)acetic acid] | -10% | 87% | 70% |
| CCN(CC)c1ccc(/C=N/Nc2nc3ccccc3[nH]2)c(O)c1 [Example 22, (E)-2-((2-(1H-Benzo[d]imidazol-2-yl)hydrazono)methyl)-5-(diethylamino)phenol] | -23% | 58% | 32% |
| Cc1ccc2c(c1)/C(=N/NC(=O)/C(=C\c1ccccc1)NC(=O)c1ccccc1)C(=O)N2C [Example 14, N-((E)-3-((Z)-2-(1,5-Dimethyl-2-oxoindolin-3-ylidene)hydrazinyl)-3-oxo-1-phenylprop-1-en-2-yl)benzamide] | -29% | 78% | 40% |
| Cc1ccc(NCC(=O)N/N=C/c2ccc(N3CCOCC3)c([N+](=O)[O-])c2)cc1C [Example 20, (E)-2-(3,4-Dimethylphenylamino)-N′-(4-morpholino-3-nitrobenzylidene)acetohydrazide] | -3% | 70% | 16% |
| CCCCCCCC(O)CCC(=O)N/N=C/c1ccc(OC)c(OC)c1 (stereo not drawn) [Example 6] | 0% | 93% | -15% |
| O=C(O)c1ccccc1N/N=C(\N=N\c1ccccc1)c1ccccc1 [Example 7, 2-((Z)-2-(Phenyl-((E)-phenyldiazenyl) -methylene)hydrazinyl)benzoic acid] | -17% | 83% | 81% |
| C(=N\N(Cc1ccccc1)c1ccccc1)/c1ccncc1 [Example 16, (E)-4-((2-Benzyl-2-phenylhydrazono)methyl)pyridine] | -6% | 74% | -2% |
| CCN(CC)c1ccc(/C=N/NC(=O)C2CC2c2ccccc2)c(O)c1 (stereo not drawn) [Example 12, (E)-N′-(4-(Diethylamino)-2-hydroxybenzylidene) -2-phenylcyclopropanecarbohydrazide] | -35% | 48% | -7% |
| C=CCOc1ccc(/C=N/NC(=O)CSCc2cccc(Br)c2)cc1OC [Example 9, (E)-N′-(4-(Allyloxy)-3-methoxybenzylidene)-2-(3-bromobenzylthio)acetohydrazide] | 2% | 80% | 21% |
| CCN(CCO)c1ccc(N/N=C2\C(=O)C=Cc3ccccc32)cc1 [Example 18, (Z)-1-(2-(4-(Ethyl-(2-hydroxyethyl)-amino)phenyl)hydrazono)naphthalen-2(1H)-one] | -9% | 87% | 33% |
| COc1ccc(/C=N/NC(=O)CC(CO)C2=CCCCC2)cc1 (stereo not drawn) [Example 5, (E)-3-Cyclohexenyl-4-hydroxy-N′-(4-methoxybenzylidene)butanehydrazide] | -7% | 96% | 29% |
| CCCCn1cc(/C=N\Nc2ccccc2C(=O)O)c2ccccc21 [Example 15, (Z)-2-(2-((1-Butyl-1H-indol-3-yl)methylene)hydrazinyl)benzoic acid] | 4% | 74% | 43% |
| N#CC(C#N)=NNc1ccc(SC(F)(F)F)cc1 [Example 13, (4-(Trifluoromethylthio)penyl)carbonohydrazonoyldicyanide] | 2% | 78% | 65% |
| COc1ccc(/C=N/NC(=O)COc2cccc(C)c2)cc1OC [Example 8, (E)-N′-(3,4-Dimethoxybenzylidene)-2-(m-tolyloxy)acetohydrazide] | -3% | 76% | 7% |
| CN(/N=C/c1ccc(O)cc1O)c1ncc(Cl)cc1C(F)(F)F [Example 19, (E)-4-((2-(5-Chloro-3-(trifluoromethyl)pyridini-2-yl)-2-2-methylhydrazono)methyl)benzene-1,3-diol] | 5% | 65% | 36% |
| CC(C)c1ccc(/C=N/NC(=O)C2C3CCCCC32)cc1 (stereo not drawn) [Example 10, (E)-N′-(4-Isopropylbenzylidene)bicyclo[4.1.0.]heptane-7-carbohydrazide] | -38% | 78% | -11% |
| O=C(N/N=C\c1ccc[nH]1)C12CC3CC(CC(C3)C1)C2 [Example 17, (Z)-N′-((1H-Pyrrol-2-yl)methylene)tricyclo [3.3.1^3,7]decane-3-carbohydrazide] | -13% | 40% | 8% |
| CN1/C(=C\C=N\Nc2ccc([N+](=O)[O-])cc2)C(C)(C)c2ccccc21 [Example 11, (Z)-1,3,3-Trimethyl-2-((E)-2-(2-(4-nitrophenyl)hydrazono)ethylidene)indoline] | 23% | 67% | 14% |
| COc1ccc(/C=N/NC(=O)C2CC2c2ccccc2)cc1OC (stereo not drawn) [Example 4, (E)-N′-(3,4-Dimethoxybenzylidene)-2-phenylcyclopropanecarbohydrazide] | -1% | 99% | -4% |
| COC(=O)c1ccc(/N=N/C(=N\Nc2nc3ccccc3s2)C(C)C)cc1 [Example 1, Methyl 4-((E)-((Z)-1-(2-(benzo[d]thiazol-2-yl)hydrazono) -2-methylpropyl)diazenyl)benzoate] | -11% | 60% | 20% |
| O=[N+](O)c1ccc(N2CCCC2)cc1N/N=C1\CN2CCC1CC2 [Example 21] | 6% | 51% | 42% |
